pIC50: −log10 of the molar value.
Assays:
[1] = tested on: HT-29 (colon cancer) cells; assay: MTT assay, HT-29 (colon cancer) cells; assay type: cell-based; settings: Homo sapiens, HT-29 cells, 72 h incubation
Protocol: (§1) ARH-77 (myeloma) and HT-29 (colon cancer) cells were grown and counted, and were thereafter plated in 96-wells plates to get 0.1×10^6 cells/well. The plates were left in the incubator overnight for cells attachment and the tested compounds were then added to the cells. The tested concentrations of the compounds were 1, 2, 5, 10, 20, 50 and 100 μM. The compounds were incubated with the cells for 24 hours, 48 hours or for 72 hours, and were thereafter subjected to the MTT assay.

[2] = tested on: ARH-77 (myeloma) cells; assay: MTT assay, ARH-77 (myeloma) cells; assay type: cell-based; settings: ARH-77 cells; for pIC50: Homo sapiens, 72 h incubation
Protocol: as §1

SMILES | pIC50 [1] | pIC50 [2] | IC50, ARH-77, 72 h incubation [2]
CCC/C(=C\B1OC(C)(C)C(C)(C)O1)C(O)(c1ccccc1)C1CC1 (centres unmarked) [Compound E2] | 4.07 | 4.27 | 
CCCCCCC(C)(O)/C(=C/B1OC(C)(C)C(C)(C)O1)CCC (centres unmarked) [Compound E5] | 4.26 | 4.52 | 
CCCCC(C)(O)/C(=C/B1OC(C)(C)C(C)(C)O1)CCC (centres unmarked) [Compound E6] | 4.10 | 4.27 | 

More lines, now with the values ahead:

pIC50 [1] | pIC50 [2] | IC50, ARH-77, 72 h incubation [2] | SMILES
4.07 | 4.19 |  | CCC/C(=C\B1OC(C)(C)C(C)(C)O1)C1(O)CCCc2ccccc21 (centres unmarked) [Compound E3]
< 4.00 |  | not active | CCC/C(=C\B1OC(C)(C)C(C)(C)O1)C(O)c1ccccc1 (centres unmarked) [Compound E4]
4.82 | 5.22 |  | CCCCCCCC/C(=C\B1OC(C)(C)C(C)(C)O1)C(O)(c1ccccc1)C1CC1 (centres unmarked) [Compound E7]
< 4.00 | 4.11 |  | CCCCCCCC/C(=C\B1OC(C)(C)C(C)(C)O1)C(C)(O)CCCCCC (centres unmarked) [Compound E8]

From patent US20130079305A1, “3-SUBSTITUTED VINYLBORONATES AND USES THEREOF” (Yissum Research Development Company of the Hebrew …, priority 2010, published 2013)
